US20250313575A1, “MACROCYCLES AS LRRK2 INHIBITORS, PHARMACEUTICAL COMPOSITIONS, AND USES THEREOF” (Merck Sharp & Dohme LLC, priority 2022, published 2025)

Target: GST-tagged truncated human mutant G2019S LRRK2 (Homo sapiens (Human), UniProt Q5S007, G2019S)
Experiment: LRRK2 G2019S Km ATP LanthaScreen assay
Assay type: biochemical
Settings: G2019S LRRK2, 134 μM ATP (Km ATP), LRRKtide substrate
Protocol: Unless otherwise noted, all reactions are magnetically allowed to stir, diethyl ether used in the experiments described below is Fisher ACS certified material stabilized with BHT, and “concentrated” and/or “solvent removed under reduced pressure” means evaporating the solvent from a solution or mixture using a rotary evaporator or vacuum pump. Unless otherwise noted, flash chromatography is carried out on a Teledyne Isco (Lincoln, NE), Analogix (Burlington, WI), or Biotage (Stockholm, SWE) automated chromatography system using a commercially available cartridge as the column. Columns may be purchased from Teledyne Isco, Analogix, Biotage, Varian (Palo Alto, CA), or Supelco (Bellefonte, PA) and are usually filled with silica gel as the stationary phase. Reverse phase prep-HPLC conditions, where used, can be found at the end of each experimental section. Aqueous solutions were concentrated on a Genevac (Ipswich, ENG) or by freeze-drying/lyophilization. Unless otherwise noted, all LRRK2 pIC50 data presented in tables refers to the LRRK2 G2019S Km ATP LanthaScreen™ assay (Life Technologies Corp., Carlsbad, CA) that is described in the Biological Assay section.
The LRRK2 kinase activity reported herein as IC50 values was determined with LanthaScreen™ technology from Life Technologies Corporation (Carlsbad, CA) using GST-tagged truncated human mutant G2019S LRRK2 in the presence of the fluorescein-labeled peptide substrate LRRKtide, also from Life Technologies. The data presented for the […] depending on the specific conditions and reagents used. Assays were performed in the presence of 134 μM ATP (Km ATP). Upon completion, the assay was stopped and phosphorylated substrate detected with a terbium (Tb)-labeled anti-pERM antibody (cat. no. PV4898). The compound dose response was prepared by diluting a 10 mM stock of compound to a maximum concentration of 9.99 μM in 100% dimethylsulfoxide followed by custom fold serial dilution in dimethylsulfoxide nine times. Twenty nanoliters of each dilution was spotted via a Labcyte Echo onto a 384-well black-sided plate (Corning 3575) followed by 15 μl of a 1.25 nM enzyme solution in 1× assay buffer (50 mM Tris pH 8.5, 10 mM MgCl2, 0.01% Brij-35, 1 mM EGTA, 2 mM dithiothreitol, 0.05 mM sodium orthovanadate). Following a 15-minute incubation at room temperature, the kinase reaction was started with the addition of 5 μl of 400 nM fluorescein-labeled LRRKtide peptide substrate and 134 μM ATP solution in 1× assay buffer. The reaction was allowed to progress at ambient temperature for 90 minutes. The reaction was then stopped by the addition of 20 μl of TR-FRET Dilution Buffer (Life Technologies, Carlsbad, CA) containing 2 nM Tb-labeled anti-phospho LRRKtide antibody and 10 mM EDTA (Life Technologies, Carlsbad, CA). After an incubation of 1 h at room temperature, the plate was read on an EnVision multimode plate reader (Perkin Elmer, Waltham, MA) with an excitation wavelength of 337 nm (Laser) and a reading emission at both 520 and 495 nm. Compound IC50s were interpolated from nonlinear regression best fits of the log of the final compound concentration, plotted as a function of the 520/495-nm emission ratio using Activity base. Abase uses a 4 parameter (4P) logistic fit based on the Levenberg-Marquardt algorithm.

Chain of GST-tagged truncated human mutant G2019S LRRK2 (Q5S007 970-2527 G2019S): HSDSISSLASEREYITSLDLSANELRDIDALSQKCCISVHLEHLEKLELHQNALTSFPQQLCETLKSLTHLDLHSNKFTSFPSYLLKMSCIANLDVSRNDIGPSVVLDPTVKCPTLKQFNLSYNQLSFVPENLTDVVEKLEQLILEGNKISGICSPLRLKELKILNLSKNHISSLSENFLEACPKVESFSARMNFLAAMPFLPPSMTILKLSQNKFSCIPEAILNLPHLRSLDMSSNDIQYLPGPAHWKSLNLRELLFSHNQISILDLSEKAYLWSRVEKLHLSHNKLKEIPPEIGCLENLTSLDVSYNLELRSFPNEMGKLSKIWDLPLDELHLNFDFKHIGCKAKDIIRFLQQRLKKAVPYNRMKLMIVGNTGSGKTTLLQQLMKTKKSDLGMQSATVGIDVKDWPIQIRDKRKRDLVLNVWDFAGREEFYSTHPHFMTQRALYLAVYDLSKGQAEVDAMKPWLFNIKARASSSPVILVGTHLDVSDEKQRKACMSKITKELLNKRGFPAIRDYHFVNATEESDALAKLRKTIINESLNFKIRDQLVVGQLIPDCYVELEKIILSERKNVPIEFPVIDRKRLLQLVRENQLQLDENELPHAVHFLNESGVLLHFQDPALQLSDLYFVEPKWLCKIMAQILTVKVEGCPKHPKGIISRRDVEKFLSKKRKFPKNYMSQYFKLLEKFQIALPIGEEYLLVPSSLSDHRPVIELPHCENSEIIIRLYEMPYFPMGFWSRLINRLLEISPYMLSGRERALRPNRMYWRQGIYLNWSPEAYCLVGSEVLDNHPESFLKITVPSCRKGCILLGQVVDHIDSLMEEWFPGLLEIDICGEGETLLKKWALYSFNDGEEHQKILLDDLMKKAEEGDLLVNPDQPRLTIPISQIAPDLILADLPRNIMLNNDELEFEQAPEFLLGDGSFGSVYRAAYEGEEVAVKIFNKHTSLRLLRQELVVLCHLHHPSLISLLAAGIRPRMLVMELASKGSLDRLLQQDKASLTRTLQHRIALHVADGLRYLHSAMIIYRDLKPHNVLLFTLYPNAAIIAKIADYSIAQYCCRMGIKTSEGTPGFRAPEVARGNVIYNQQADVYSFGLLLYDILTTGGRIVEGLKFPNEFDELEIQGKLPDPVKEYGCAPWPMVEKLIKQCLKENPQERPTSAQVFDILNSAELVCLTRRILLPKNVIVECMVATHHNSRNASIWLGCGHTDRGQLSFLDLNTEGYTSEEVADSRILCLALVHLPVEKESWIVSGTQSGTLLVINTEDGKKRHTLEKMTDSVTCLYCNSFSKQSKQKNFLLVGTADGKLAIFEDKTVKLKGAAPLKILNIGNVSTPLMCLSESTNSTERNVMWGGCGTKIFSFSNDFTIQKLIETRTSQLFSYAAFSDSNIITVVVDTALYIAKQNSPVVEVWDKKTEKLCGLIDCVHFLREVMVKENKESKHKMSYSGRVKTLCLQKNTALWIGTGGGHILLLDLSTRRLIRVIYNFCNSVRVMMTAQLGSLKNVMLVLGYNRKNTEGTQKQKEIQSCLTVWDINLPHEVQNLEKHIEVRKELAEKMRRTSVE

| SMILES | LRRK2 pIC50 | IC50 (read-out: LRRK2 pIC50 (converted)) |
| --- | --- | --- |
| O[C@@H]1COCC1n1nc(C2CC2)c2c1OC[C@H]1CC[C@@H]1Nc1nc(ncc1C(F)(F)F)N2 (single isomer, unassigned) [Ex-6.3, (3R,4S)-4-((10aR,12aR)- or (3R,4S)-4-((10aS,12aS)- or (3S,4R)-4-((10aR,12aR)- or (3S,4R)-4-((10aR,12aR)-3-cyclopropyl-8-(trifluoromethyl)-10,10a,11,12,12a,13-hexahydro-5,9-(azeno)cyclobuta[k]pyrazolo[3,4-b][1]oxa[4,6,10]triazacyclotridecin-1 (4H)-yl)tetrahydrofuran-3-ol] | 7.29 |  |
| CCn1nc(C)c2c1OCC1(CC1)CNc1nc(ncc1C(F)(F)F)N2 [Ex-1.3, 1′-ethyl-3′-methyl-8′-(trifluoromethyl)-1′,4′,10′,11′-tetrahydro-13′H-spiro[cyclopropane-1,12′-[5,9](azeno)pyrazolo[3,4-b][1]oxa[4,6,10]triazacyclotridecine]] | 9.07 |  |
| O[C@@H]1COCC1n1nc(C2CC2)c2c1OC[C@H]1CC[C@@H]1Nc1nc(ncc1C(F)(F)F)N2 (single isomer, unassigned) [Ex-6.1, (3R,4S)-4-((10aR,12aR)- or (3R,4S)-4-((10aS,12aS)- or (3S,4R)-4-((10aR,12aR)- or (3S,4R)-4-((10aR,12aR)-3-cyclopropyl-8-(trifluoromethyl)-10,10a,11,12,12a,13-hexahydro-5,9-(azeno)cyclobuta[k]pyrazolo[3,4-b][1]oxa[4,6,10]triazacyclotridecin-1 (4H)-yl)tetrahydrofuran-3-ol] | 7.94 |  |
| COC1CC(n2nc(C)c3c2Nc2ncc(C(F)(F)F)c(n2)N[C@@H]2CC[C@H]2CO3)C1 (stereo partly drawn) [Ex-2.78, (10aR,12aR)-3-(3-methoxycyclobutyl)-1-methyl-8-(trifluoromethyl)-3,4,10,10a,11,12,12a,13-octahydro-5,9-(azeno)cyclobuta[k]pyrazolo[4,3-b][1]oxa[4,6,10]triazacyclotridecine] | >10.09 |  |
| Cc1nn(C2CCC2)c2c1OC[C@@H]1COC[C@H]1Nc1nc(ncc1C(F)(F)F)N2 [Ex-5.1, (10aS,13aS)-3-cyclobutyl-1-methyl-8-(trifluoromethyl)-3,4,10a,11,13a,14-hexahydro-10H,13H-5,9-(azeno)furo[3,4-k]pyrazolo[4,3-b][1]oxa[4,6,10]triazacyclotridecine] | >10.09 |  |
| FC(F)(F)c1cnc2nc1NC1CCC1COc1c(C3CCOC3)nn(C3CCC3)c1N2 [Ex-2.63, (10aR,12aR)-3-cyclobutyl-1-((R)-(10aR,12aR)-3-cyclobutyl-1-((S)-(10aS,12aS)-3-cyclobutyl-1-((R)-(10aS,12aS)-3-cyclobutyl-1-((S)-tetrahydrofuran-3-yl)-8-(trifluoromethyl)-3,4,10,10a,11,12,12a,13-octahydro-5,9-(azeno)cyclobuta[k]pyrazolo[4,3-b][1]oxa[4,6,10]triazacyclotridecine] | >10.09 |  |
| FC(F)(F)c1cnc2nc1NC1CCC1COc1c(C3COC3)nn(C3CCC3)c1N2 [Ex-2.72, (10aR,12aR)- or (10aS,12aS)-3-cyclobutyl-1-(oxetan-3-yl)-8-(trifluoromethyl)-3,4,10,10a,11,12,12a,13-octahydro-5,9-(azeno)cyclobuta[k]pyrazolo[4,3-b][1]oxa[4,6,10]triazacyclotridecine] | >10.09 |  |
| COC1CCC1n1nc(C)c2c1Nc1ncc(C(F)(F)F)c(n1)NC1COCC1CO2 [Ex-2.40, (10aS,13aS)-3-((1R,2R)-(10aS,13aS)-3-((1S,2R)-(10aS,13aS)-3-((1R,2S)-(10aS,13aS)-3-((1R,2R)-(10aR,13aR)-3-((1S,2R)-(10aR,13aR)-3-((1R,2S)-2-methoxycyclobutyl)-1-methyl-8-(trifluoromethyl)-3,4,10a,11,13a,14-hexahydro-10H,13H-5,9-(azeno)furo[3,4-k]pyrazolo[4,3-b][1]oxa[4,6,10]triazacyclotridecine] | 8.96 |  |
| FC(F)(F)c1cnc2nc1N[C@@H]1COC[C@H]1COc1ncccc1N2 [Ex-15.6, (11aS,14aS)-9-(trifluoromethyl)-11a,12,14a,15-tetrahydro-5H,11H,14H6,10-(azeno)furo[3,4-k]pyrido[2,3-b][1]oxa[4,6,10]triazacyclotridecine] | 9.08 |  |
| CC(C)c1nn(C(C)(C)C#N)c2c1Nc1ncc(C3CC3)c(n1)N[C@@H]1COC[C@H]1CO2 [Ex-1.15, 2-((10aS,13aS)-8-cyclopropyl-3-isopropyl-10a,11,13a,14-tetrahydro-10H,13H-5,9-(azeno)furo[3,4-k]pyrazolo[3,4-b][1]oxa[4,6,10]triazacyclotridecin-1(4H)-yl)-2-methylpropanenitrile] | 8.27 |  |
| Cc1nn(C)c2c1OC[C@H]1COC[C@H]1Nc1nc(ncc1C(F)(F)F)N2 (single isomer, unassigned) [Ex-2.25, (10aS,13aR)- or (10aR,13aS)-1,3-dimethyl-8-(trifluoromethyl)-3,4,10a,11,13a,14-hexahydro-10H,13H-5,9-(azeno)furo[3,4-k]pyrazolo[4,3-b][1]oxa[4,6,10]triazacyclotridecine] |  | 28.2 nM |
| Cc1nn(C2CC2)c2c1OC[C@@H]1COC[C@H]1Nc1nc(ncc1C(F)(F)F)N2 [Ex-5.2, (10aS,13aS)-3-cyclopropyl-1-methyl-8-(trifluoromethyl)-3,4,10a,11,13a,14-hexahydro-10H,13H-5,9-(azeno)furo[3,4-k]pyrazolo[4,3-b][1]oxa[4,6,10]triazacyclotridecine] | 9.46 |  |
| FC(F)(F)c1cnc2nc1NC1CCC1COc1c(C3CCOC3)nn(C3CCC3)c1N2 [Ex-2.62, (10aR,12aR)-3-cyclobutyl-1-((R)-(10aR,12aR)-3-cyclobutyl-1-((S)-(10aS,12aS)-3-cyclobutyl-1-((R)-(10aS,12aS)-3-cyclobutyl-1-((S)-tetrahydrofuran-3-yl)-8-(trifluoromethyl)-3,4,10,10a,11,12,12a,13-octahydro-5,9-(azeno)cyclobuta[k]pyrazolo[4,3-b][1]oxa[4,6,10]triazacyclotridecine] | 6.88 |  |
| Cc1nn(C2CCC2)c2c1OC[C@H]1COC[C@@H]1Nc1cc(ncc1C(F)(F)F)N2 [Ex-13.2, (10aR,13aR)-3-cyclobutyl-1-methyl-8-(trifluoromethyl)-3,4,10a,11,13a,14-hexahydro-10H,13H-5,9-(metheno)furo[3,4-k]pyrazolo[4,3-b][1]oxa[4,6,10]triazacyclotridecine] | 7.01 |  |
| Cc1nn(C)c2c1OCC[C@H](C)Nc1nc(ncc1C(F)(F)F)N2 (mixture of isomers) [Ex-2.1, (R)- and (S)-1,3,7-trimethyl-10-(trifluoromethyl)-1,5,6,7,8,14-hexahydro-9,13-(azeno)pyrazolo[4,3-b][1]oxa[4,6,10]triazacyclotridecine] | 6.64 |  |
| Cc1nn(C2CCC2)c2c1OC[C@@H]1CC[C@@H]1Nc1nc(ncc1Cl)N2 [Ex-2.56, (10aS,12aR)-8-chloro-3-cyclobutyl-1-methyl-3,4,10,10a,11,12,12a,13-octahydro-5,9-(azeno)cyclobuta[k]pyrazolo[4,3-b][1]oxa[4,6,10]triazacyclotridecine] | >10.09 |  |
| Cc1nn(C)c2c1OC[C@@H]1CN(C[C@H]1C)c1nc(ncc1C(F)(F)F)N2 [Ex-19.1] | >10.09 |  |
